The test system of one assay is ovariectomized rats. The assay can be described thus: Chronic OVX (treatment model) oral dosing. In kind it is in vivo, rat. Conditions: once per day for 10 weeks, from 6 weeks post-ovariectomy, not significant. As for the experimental part:
Lead compounds may also be tested in chronic OVX animals (treatment model). An exemplary protocol for treatment of established bone loss in ovariectomized animals that can be used to assess efficacy of anabolic agents may be performed as follows. Briefly, 80 to 100 six month old female, Sprague-Dawley rats are subjected to sham surgery (sham OVX) or ovariectomy (OVX) at time 0, and 10 rats are sacrificed to serve as baseline controls. Body weights are recorded weekly during the experiment. After approximately 6 weeks (42 days) or more of bone depletion, 10 sham OVX and 10 OVX rats are randomly selected for sacrifice as depletion period controls. Of the remaining animals, 10 sham OVX and 10 OVX rats are used as placebo-treated controls. The remaining OVX animals are treated with 3 to 5 doses of test drug for a period of 5 weeks (35 days). As a positive control, a group of OVX rats can be treated with an agent such as PTH, a known anabolic agent in this model (Kimmel, et al., Endocrinology (1993) 132:1577-84). […]
(§1) Lovastatin and simvastatin were analyzed in vivo using an acute OVX (prevention model) and/or chronic (treatment model) OVX model system, as described above under “Additional In Vivo Assays”.
Simvastatin was also examined in a chronic OVX study. […] At the 50 mg/kg/day dose, an 86% (not significant) increase in the bone formation rate in the proximal tibia was measured.

In assay [1] the test system is ovariectomized Sprague-Dawley rats. Put plainly: Acute OVX (prevention model) oral dosing. In kind it is in vivo, rat. Here is the method:
Lead compounds can also be tested in acute ovariectomized animals (prevention model) using an in vivo dosing assay. Such assays may also include an estrogen-treated group as a control. An exemplary subcutaneous dosing assay is performed as follows:
In a typical study, 80 three-month-old female Sprague-Dawley rats are weight-matched and divided into eight groups, with ten animals in each group. This includes a baseline control group of animals sacrificed at the initiation of the study; three control groups (sham ovariectomized (sham OVX)+vehicle only; ovariectomized (OVX)+vehicle only; PBS-treated OVX); and a control OVX group that is administered a compound known to promote bone growth. Three dosage levels of the compound to be tested are administered to the remaining three groups of OVX animals.
Since ovariectomy (OVX) induces hyperphagia, all OVX animals are pair-fed with sham OVX animals throughout the 35 day study. Briefly, test compound, positive control compound, PBS, or vehicle alone is administered orally or subcutaneously once per day for 35 days. Alternatively, test compound can be formulated in implantable pellets that are implanted for 35 days, or may be administered orally, such as by gastric gavage. All animals, including sham OVX/vehicle and OVX/vehicle groups, are injected intraperitoneally with calcein nine days and two days before sacrifice (two injections of calcein administered each designated day, to ensure proper labeling of newly formed bone). Weekly body weights are determined. At the end of the 35-day cycle, the animals' blood and tissues are processed as described above.
as §1
Lovastatin was examined in an acute OVX study. Briefly, 59-0326 was orally administered (35, 7, or 1.4 mg/kg/day; once per day for 35 days) immediately following ovariectomy. At the end of the study, the animals' blood and tissues samples were processed, and the following data were obtained.
Similarly, lovastatin was orally administered (0.1, 1, 5, 10, 20 or 40 mg/kg/day; once per day for 35 days) immediately following ovariectomy. Two individuals histomorphometrically analyzed samples removed from animals that received the 10 mg/kg/day dose. These analyses indicated an increase in trabecular bone volume of 38% (not significant) or 90% (p<0.02) in the proximal tibia. The bone formation rate in the proximal tibia was determined to have increased 74% (p=0.004) in animals that received a 10 mg/kg/day dose or 37% (p<0.008) in animals that received a 1 mg/kg/day dose. In samples from animals that received the 1 mg/kg/day dose, mineral apposition rate in the proximal tibia was increased 22%.

The next assay deals with rabbits. The settings on record: Wang et al. 1995; cited from earlier work.
The test system of assay [2] is serum response element (SRE)-luciferase reporter gene / CRE-luciferase reporter gene. Put plainly: negative control OBSRE (SRE-luciferase) and/or glucagon (CRE-luciferase) assays. In kind it is cell-based, murine. An excerpt: In the negative control OBSRE assay, a murine osteoblast cell line, such as CCC-4 expressing a serum response element (SRE)-luciferase reporter gene is used (see WO96/07733). In the negative control glucagon assay, a glucagon receptor-positive BHK cell expressing a CRE-luciferase reporter gene is used (see U.S. Pat. No. 5,698,672).

The mark [3] stands for this setting: 7 mg/kg/day oral, once per day for 35 days.

“And” between values parts separate entries of the source, which are not always exact repeats. Equal values may be shown once.

In the case of `CCC(C)(C)C(=O)O[C@H]1C[C@@H](C)C=C2C=C[C@H](C)[C@H](CC[C@@H]3C[C@@H](O)CC(=O)O3)[C@H]21` [Simvastatin, simvastatin], the results for the “increase in the bone formation rate in the proximal tibia” value with ovariectomized rats (10 mg/kg/day oral) and in the assay on ovariectomized rats (50 mg/kg/day oral) were 114% and 86%, respectively.
Regarding `CC[C@H](C)C(=O)O[C@H]1C[C@@H](C)C=C2C=C[C@H](C)[C@H](CC[C@@H]3C[C@@H](O)CC(=O)O3)[C@H]21` [Lovastatin, lovastatin], the “increase in trabecular bone volume in the proximal tibia” value in assay [1] (7 mg/kg/day oral, 35 days, histomorphometric analysis by two individuals (p<0.001; p=0.0503)) is 110% and 25%. Moreover, the “increase in trabecular bone volume in the distal femur” value in assay [1] (7 mg/kg/day oral, 35 days, not significant) is recorded as 23%. In addition, the “increase in bone formation rate in the distal femur” value in assay [1] (7 mg/kg/day oral, 35 days, p=0.052) is listed as 40%. Besides, in assay [1] (setting [3]), the “increase in cortical thickness (pQCT)” value was 14% and the “increase in trabecular density (pQCT)” value came out at 20%. For the same compound, the “increase in mineral apposition rate in the proximal tibia” value in assay [1] (second study, 1 mg/kg/day oral, 35 days) worked out at 22%. Moreover, in assay [1] (second study, 1 mg/kg/day oral, 35 days, p<0.008), the “increase in bone formation rate in the proximal tibia” value was 37%. In addition, in assay [1] (second study, 10 mg/kg/day oral, 35 days, p=0.004), the “increase in bone formation rate in the proximal tibia” value turned out to be 74%. For the same compound, the “increase in trabecular bone volume in the proximal tibia” value in assay [1] (second study, 10 mg/kg/day oral, 35 days, two individuals (not significant; p<0.02), 10 mg/kg/day) was 38% and 90%. Besides, in the assay with rabbits, the “effect on bone formation in the absence of steroid treatment” value is “no effect on bone formation” and the “inhibition of the bone resorption resulting from steroid administration” value is “able to inhibit the bone resorption”. Moreover, the “dose-dependent stimulatory effect in control assays” value in assay [2] was “not in control assays”.

Source of the values: patent US6642216B2, “Isoprenoid pathway inhibitors for stimulating bone growth” (ZymoGenetics Corporation, priority 1996, dated 2003).
